In article PMC11500415, “Chemical inhibition of stomatal differentiation by perturbation of the master-regulatory bHLH heterodimer via an ACT-Like domain” (Nature Communications, 2024):
Where “and” joins values, the source holds several entries; their conditions need not be identical. Equal values may be shown once.

Molecular target: T1, SCRM-MUTE (Arabidopsis thaliana, UniProt Q9M8K6)
T1 construct: MUTE (1-202); GST (N, cleaved yes); made in house; host or cells: E. coli BL21
T1 sequence (Q9M8K6 1-202): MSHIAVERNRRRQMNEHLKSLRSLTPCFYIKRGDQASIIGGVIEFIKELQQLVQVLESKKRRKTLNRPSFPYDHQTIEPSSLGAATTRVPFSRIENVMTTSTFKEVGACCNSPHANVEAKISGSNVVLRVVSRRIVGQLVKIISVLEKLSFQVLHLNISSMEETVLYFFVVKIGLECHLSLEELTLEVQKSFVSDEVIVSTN
Assay: BLI of SCRM-MUTE interaction in presence of compound
Assay type: binding, A. thaliana
Conditions: for effect on the SCRM-MUTE heterodimerization (in words): BLI and ITC (Supplementary Fig. 9, Supplementary Tables 2, 3); for Response: BLI, GST-SCRM loaded, in nm (unit assumed)
Text: A. thaliana SCRM (1-494), ΔNSPCH (98-364), MUTE (1-202), ΔNFAMA (190-414), MUTEΔC (1-114), MUTER133A_R134A, MUTEE162A_E163A, MUTER133A_R134A_E162A_E163A, SCRM-ACTL (405-494), MUTE-ACTL (114-202), SPCH-ACTL (285-364), FAMA-ACTL (306-414), MUTE_ACTLR133A_R134A, MUTE_ACTLE162A_E163A, MUTE_ACTLR133A_R134A_E162A_E163A were cloned into pGEX-4T-1 vector with an N-terminal GST tag and a thrombin cleavage sequence. For protein expression, the constructs were transformed into E. coli strain BL21. For each transformant, a single colony was selected and incubated in 10 ml LB liquid media. The overnight-incubated E. coli suspensions were transferred to 1 L LB medium and incubated at 37 °C for around 2 h until the OD600 reached 0.4–0.6. The isopropyl β-D-1-thiogalactopyranoside ([…] of final concentration) was added to the cultures and the strains were incubated at 22 °C for a further 18 h. GST-fused proteins were purified using glutathione agarose resin. The soluble portion of the cell lysate was loaded onto a GST-Sepharose column. Nonspecifically bound proteins were removed by washing the column with 20 mM Tris pH 8.0, 200 mM NaCl. The bound GST-fused protein was eluted with 10 mm glutathione and 20 mM Tris pH 8.0, 200 mM NaCl. The GST-fused proteins were exchanged with phosphate-buffered saline buffer, and then the solution was treated with 50 μg of thrombin for 10–12 h at 16 ^οC. The GST portion of the protein was cleaved during thrombin digestion, and then the whole solution was reloaded onto the glutathione S-transferase column to obtain pure protein. The purified proteins were further purified by gel filtration on a Superdex-200 (GE) column using fast protein liquid chromatography and phosphate buffer (pH 7.2) as the eluent. The purity of the protein was checked by SDS-PAGE. For detailed lists of oligo DNA and plasmid information, see Supplementary Tables 5, 6, respectively.
The binding affinities of SCRM to MUTE / MUTER133A_R134A / MUTEE162A_E163A / MUTER133A_R134A_E162A_E163A in presence and absence of Stomidazolone (3) and its analogues (AYSJ1059 (5) and AYSJ1061 (6)), and Stomidazolone / AYSJ1059 / AYSJ1061 interactions with GST-tagged SCRM, MUTE, SPCH, FAMA, MUTE ΔACTL, MUTE_ACTL, SCRM_ACTL, SPCH_ACTL and FAMA_ACTL, MUTER133A_134A, MUTEE162A_E163A, MUTER133A_R134A_E162A_E163A were measured using the Octet Red96 system (ForteBio, Pall Life Sciences) following the manufacturer’s protocols. The optical probes coated with anti-GST were first loaded with 500 nM GST tagged proteins before kinetic binding analyses. The experiment was performed in 96-well plates maintained at 30 °C. Each well was loaded with 200 μL reaction volume for the experiment. The binding buffer used in these experiments contained 1× PBS supplemented with 2% DMSO, 0.02% Tween20. The concentrations of the Stomidazolone as the analyte in the binding buffer were 100, 50, 25, 12.5, 6.25, 3.12, and 1.56 μM. There was no binding of the analytes to the unloaded probes as shown by the control wells. Binding kinetics to all seven concentrations of the analytes were measured simultaneously using default parameters on the instrument. The data were analyzed using the Octet data analysis software. The association and dissociation curves were fit with the 1:1 homogeneous ligand model. The kobs (observed rate constant) values were used to calculate Kd, with steady-state analysis of the direct binding. See Supplementary Table 3 for details.

Structure (SMILES) | effect on the SCRM-MUTE heterodimerization (in words) | Response (MUTE+Stomid Conc. 78 nM) | Response (MUTE+Stomid Conc. 78 nM, listed as Stomid) | Response (MUTE+Stomid Conc. 156 nM) | Response (MUTE+Stomid Conc. 312.5 nM) | Response (MUTE+Stomid Conc. 625 nM) | Response (MUTE+Stomid Conc. 1250 nM) | Response (MUTE+Stomid Conc. 2500 nM) | Response (MUTE+Stomid Conc. 5000 nM)
Cc1ccc(C2(NS(=O)(=O)c3ccccc3)N=C(c3ccccc3)C(=O)N2S(=O)(=O)c2ccccc2)cc1 (stereo not shown) [AYSJ1059] | minimal effects | – | – | – | – | – | – | – | –
O=C1C(c2ccccc2)=NC(NS(=O)(=O)c2ccccc2)(c2ccc(Br)cc2)N1S(=O)(=O)c1ccccc1 (stereo not shown) [AYSJ1061] | minimal effects | – | – | – | – | – | – | – | –
O=C1C(c2ccccc2)=NC(NS(=O)(=O)c2ccccc2)(c2ccccc2)N1S(=O)(=O)c1ccccc1 (stereo not shown) [Stomidazolone] | – | 0.031 | 0.0213 | 0.0603 and 0.0323 | 0.0687 and 0.078 | 0.1313 and 0.1154 | 0.2145 and 0.1812 | 0.2742 and 0.2312 | 0.2812 and 0.3134
